In US20230081679A1, “SURFACTANT VESICLES FOR VACCINE FORMULATION, TARGETED DRUG DELIVERY, AND TRANSFECTION” (University of Maryland, College Park, priority 2021, published 2023):
In brackets after ≈: the same amount, converted by molar mass. Several values for one entry are separate records, joined by “and”; a condition that tells them apart may be missing. Identical values can stand only once. Like-named read-outs stand apart in the source and are kept apart here. {BHQ2} = Black Hole Quencher 2; {FAM} = fluorescein

Experiments:
DNase I = DNase I Protection Assay; conditions: 25° C. or 37° C., intact vesicles
Method: FIG. 10. […] Vesicle-incorporated fluorescently-quenched 20 bp DNA duplexes were subjected to DNase I cleavage at 25° C. (A) or 37° C. (B) before (intact) and after (broken) freeze/thaw cycles to promote vesicle rupturing. […] Variation in overall fluorescent intensity in the ruptured samples reflect the variability in vesicle rupture and reformation during the freeze/thaw process.
DNase I Protection Assay: Intact DNA duplex loaded vesicles were added to reaction buffer containing 2.5 mM magnesium chloride, 0.5 mM calcium chloride, and 1× PBS. DNase I (Thermo Fisher Scientific, Waltham, Mass.) was added to a final concentration of 0.005 U/μL and the reaction was monitored by fluorescence (excitation at 494 nm, emission 521 nm) collected on SpectraMax M5 Microplate Reader (Molecular Devices, San Jose, Calif.) over 3 h at 25° C. or 37° C. Broken vesicles were prepared by 3 freeze thaw cycles of 10 min at −80° C. and 2 min at RT. Following the freeze thaw procedure, the samples equilibrated at RT for 30 min and were used in the assay as described above.

[1] = Encapsulation in catanionic SVs (gel filtration, then NMR or ICP-AES); assay type: physicochemical
Method: Vesicles were formed in the presence of several different sugars, purified by gel filtration, and the encapsulated sugar concentration measured by NMR (Table 3).
Table 6 summarizes the EE and drug concentration achieved with each of the chemotherapeutic agents under the standard SDBS-rich SVs formulation method.
The gel was flushed with two column-volumes of PBS 1×. Next, 1.0 mL of crude vesicle suspension was loaded onto the column and gravity fed into the gel. 2.0 mL of PBS 1× eluent was then added to the column and the fractions discarded. 1.5 mL of PBS 1× was then added to the column and the fractions collected to yield purified opaque light blue vesicles. The column was cleaned with 2.0 mL of 0.1% Triton X-100 in water followed by two column volumes of PBS 1×.

[2] = Conversion of carboplatin in PBS 1×; assay type: physicochemical; conditions: 40 mM in PBS 1×, 48 h, room temperature
[3] = for Second Order Rate Constant k’: 60:40 w/w SDBS:CTAT, 1% w/w total surfactant
Method: To assess the rate of encapsulated substrate release, dialysis was initially considered. […] The assay was to remove aliquots from SVs-encapsulated formulations at time intervals and re-purify the aliquot by size-exclusion chromatography (SEC). Vesicle fractions elute in the initial fractions while release carbohydrate is retained on the column and elutes in the later fractions. The quantity of carbohydrate released was determined by ^1H-NMR (FIG. 28).
Using the SEC method, the initial rate of glucose release was analyzed for vesicle encapsulated glucose solutions at varying concentrations. […] Therefore, a simple model with first-order release kinetics across the vesicle membrane (Eq. 1) was used, from which the rate law (Eq. 2) can be derived, where [Sugar]in and [Sugar]out are the sugar concentrations inside and outside the vesicle, respectively.
The release for each vesicle-encapsulated sugar preparation was monitored for at least two half-lives (monosaccharides) and at least one half-life (disaccharides and maltotriose). The release profile for each substrate was then fit to Eq. 3 by a least squares method, and the first order rate constant k1 was calculated. The reported uncertainties represent the standard deviation in the measured k1 of three separate batches of vesicle-encapsulated sugar.
The t1/2 was calculated from each k1, and the permeability coefficient (P) was calculated using k1 and the vesicle size (from DLS experiments) according to: […]

[4] = saline at 37° C.; cited from earlier work
[5] = Drug pKa and solubility in buffer; assay type: physicochemical
[6] = Vesicle radius and PDI by DLS
Method: To measure the average size of the vesicles, 100 μL of the solution was taken and diluted to 1 mL with water and analyzed using dynamic light scattering (DLS).

[7] = Encapsulation in catanionic SVs (gel filtration, then NMR or ICP-AES); assay type: physicochemical; conditions: empty SVs incubated in 4 mM D-maltose solution for three weeks
[8] = cited from earlier work
MDA-MB-231 = assay: Empty vesicles vs. DOX-vesicles on cell lines; assay type: cell-based; conditions: MDA-MB-231 human breast cancer
Source text: (§1) Empty vesicles vs. DOX-vesicles. 3 cell lines: MDA-MB-231: human breast cancer; MCF-7: human breast cancer; A549: non-small cell lung cancer.

A549 = assay: Empty vesicles vs. DOX-vesicles on cell lines; assay type: cell-based; conditions: Homo sapiens; A549 non-small cell lung cancer
Source text: as §1

[9] = chemotherapeutic drugs in SDBS-rich SVs, PBS 1×
[10] = drug release from catanionic SVs, PBS 1×
[11] = 250 mM cellobiose instead of 500 mM, PBS 1×
[12] = sugar vesicles, 250 mM cellobiose, PBS 1×, after 24 h
[13] = prepared in 500 mM sugar, PBS 1×
[14] = 25° C., PBS 1× pH 7.4, 60:40 w/w SDBS rich vesicles, 500 mM sugar
[15] = sugar vesicles, 500 mM sugar, PBS 1×, after 24 h
[16] = 100 mM glucosamine instead of 500 mM, PBS 1×
[17] = sugar vesicles, 100 mM glucosamine, PBS 1×, after 24 h
[18] = 500 mM sugar, deionized water instead of PBS 1×
[19] = sugar vesicles, deionized water instead of PBS 1×, after 24 h

Molecule: 20 bp DNA duplexes: fluorescently-quenched 20 bp DNA duplexes (SEQ ID NO:3 and 4), vesicle-incorporated (chain 1 ACCCTACGTATCGGTCAGTC; chain 2 GACTGACCGATACGTAGGGT; chain 1: DNA, 3' {FAM}, backbone and methylation of C not given here; chain 2: DNA, 5' {BHQ2}, backbone and methylation of C not given here)
- protection from DNase I cleavage, vesicle-incorporated (DNase I): protected from nuclease digestion

Molecule: N.N.O=C([O-])C1(C(=O)[O-])CCC1.[Pt+2] [Carboplatin, carboplatin]
- EE (%) [1, 9]: 1.9%
- [Drug], mM (in purified vesicles) [1, 9]: 0.5 ± 0.1 mM
- converted to cisplatin [2]: 2%
- remained unreacted [2]: 93%
- leaked out of the vesicles ([3]; at the 48 h mark): over 50%
- First Order Rate Constant k [3, 10]: 0.039 ± 0.004 h⁻¹
- fold slower release than cisplatin ([3]; release from SVs): 20 fold
- fold slower release than glucose ([3]; release from SVs): 3 fold
- kobs of ligand exchange [4]: 7.7e-07 s⁻¹
- t1/2 of ligand exchange [4]: ≈ 10 days
- solubility (concentration in buffer) [5]: 40 mM
- Vesicle PDI ([6]; drug-loaded catanionic SVs): 0.19
- Vesicle Radius (nm) ([6]; drug-loaded catanionic SVs): 74 nm

Molecule: N.N.[Cl][Pt][Cl] [Cisplatin, cisplatin]
- EE (%) [1, 9]: 2.1%
- [Drug], mM (in purified vesicles) [1, 9]: 0.05 ± 0.01 mM
- First Order Rate Constant k [3, 10]: 0.78 ± 0.06 h⁻¹
- Vesicle PDI ([6]; drug-loaded catanionic SVs): 0.16
- Vesicle Radius (nm) ([6]; drug-loaded catanionic SVs): 76 nm

Molecule: OC[C@H]1O[C@@H](O[C@H]2[C@H](O)[C@@H](O)[C@H](O)O[C@@H]2CO)[C@H](O)[C@@H](O)[C@@H]1O [D-cellobiose]
- EE (%) [1, 11]: 1.2%
- [Sugar], mM (in purified vesicles) [1, 11]: 2.0 ± 0.4 mM
- Second Order Rate Constant k’ ([3]; 25° C., PBS 1×): 0.000722 ± 0.00014 M⁻¹ s⁻¹
- Vesicle PDI [6, 12]: 0.15
- Vesicle Radius (nm) [6, 12]: 90 nm

Molecule: O=C[C@H](O)[C@@H](O)[C@@H](O)[C@H](O)CO [D-galactose]
- EE (%) [1, 13]: 0.82%
- [Sugar], mM (in purified vesicles) [1, 13]: 2.7 ± 0.7 mM
- First Order Rate Constant k [3, 14]: 0.16 ± 0.02 h⁻¹
- Vesicle PDI [6, 15]: 0.20
- Vesicle Radius (nm) [6, 15]: 83 nm

Molecule: O=S(=O)(O)N[C@H]1C(O)O[C@H](CO)[C@@H](O)[C@@H]1O (stereo partly drawn) [D-glucosamine-2-sulfate]
- EE (%) [1, 13]: 1.0%
- [Sugar], mM (in purified vesicles) [1, 13]: 3.3 ± 0.7 mM
- First Order Rate Constant k [3, 14]: 0.29 ± 0.06 h⁻¹
- Vesicle PDI [6, 15]: 0.06
- Vesicle Radius (nm) [6, 15]: 69 nm

Molecule: N[C@H]1C(O)O[C@H](CO)[C@@H](O)[C@@H]1O (stereo partly drawn) [D-glucosamine]
- EE (%) [1, 16]: 3.5%
- [Sugar], mM (in purified vesicles) [1, 16]: 2.3 ± 0.2 mM
- First Order Rate Constant k ([3]; 25° C., PBS 1× pH 7.4, 100 mM sugar concentration): 0.11 ± 0.01 h⁻¹
- Vesicle PDI [6, 17]: 0.23
- Vesicle Radius (nm) [6, 17]: 78 nm

Molecule: O=C[C@H](O)[C@@H](O)[C@H](O)[C@H](O)CO [D-glucose]
- EE (%) [1, 18]: 0.67%
- [Sugar], mM (in purified vesicles) [1, 18]: 2 ± 1 mM
- EE (%) [1, 13]: 1.1%
- [Sugar], mM (in purified vesicles) [1, 13]: 3.7 ± 0.8 mM
- EE ([1]; vesicles prepared in 0.1 M glucose): 1.9%
- First Order Rate Constant k [3, 14]: 0.12 ± 0.03 h⁻¹
- First Order Rate Constant k ([3]; 25° C., in water instead of PBS 1×, 500 mM sugar): 0.12 ± 0.05 h⁻¹
- slope of ln starting concentration vs ln initial release rate ([3]; vesicles prepared in 0.1, 0.2 and 0.5 M glucose): 1.1±0.2
- Vesicle PDI [6, 15]: 0.17
- Vesicle Radius (nm) [6, 15]: 75 nm
- Vesicle PDI [6, 19]: 0.40
- Vesicle Radius (nm) [6, 19]: 178 nm

Molecule: OC[C@H]1O[C@H](O[C@H]2[C@H](O)[C@@H](O)[C@H](O)O[C@@H]2CO)[C@H](O)[C@@H](O)[C@@H]1O [D-maltose]
- EE [7]: 5%
- maltose trapped by vesicles [7]: 0.2 mM
- EE (%) [1, 13]: 1.2%
- [Sugar], mM (in purified vesicles) [1, 13]: 4.1 ± 0.3 mM
- Second Order Rate Constant k’ ([3]; 25° C., PBS 1×): 0.000333 ± 8.3e-05 M⁻¹ s⁻¹
- Second Order Rate Constant k’ ([3]; 25° C., PBS 1×, listed as Maltose): 0.000333 ± 8.3e-05 M⁻¹ s⁻¹
- Vesicle PDI [6, 15]: 0.13
- Vesicle Radius (nm) [6, 15]: 80 nm

Molecule: O=C[C@@H](O)[C@@H](O)[C@H](O)[C@H](O)CO [D-mannose]
- EE (%) [1, 13]: 0.87%
- [Sugar], mM (in purified vesicles) [1, 13]: 2.9 ± 0.2 mM
- First Order Rate Constant k [3, 14]: 0.26 ± 0.06 h⁻¹
- Vesicle PDI [6, 15]: 0.18
- Vesicle Radius (nm) [6, 15]: 74 nm

Molecule: O=C[C@H](O)[C@H](O)[C@H](O)CO [D-ribose]
- EE (%) [1, 13]: 0.084%
- [Sugar], mM (in purified vesicles) [1, 13]: 0.28 ± 0.02 mM
- Vesicle PDI [6, 15]: 0.20
- Vesicle Radius (nm) [6, 15]: 72 nm

Molecule: OC[C@H]1O[C@@](CO)(O[C@H]2O[C@H](CO)[C@@H](O)[C@H](O)[C@H]2O)[C@@H](O)[C@@H]1O [D-sucrose]
- EE (%) [1, 13]: 0.86%
- [Sugar], mM (in purified vesicles) [1, 13]: 3.2 ± 0.4 mM
- Second Order Rate Constant k’ ([3]; 25° C., PBS 1×): 0.00186 ± 0.00011 M⁻¹ s⁻¹
- fold faster leakage than maltose ([3]; second order release from SVs): 5.6 fold
- Vesicle PDI [6, 15]: 0.12
- Vesicle Radius (nm) [6, 15]: 82 nm

Molecule: COc1cccc2c1C(=O)c1c(O)c3c(c(O)c1C2=O)C[C@@](O)(C(=O)CO)C[C@@H]3O[C@H]1C[C@H](N)[C@H](O)[C@H](C)O1 [Doxorubicin, doxorubicin]
- EE (%) [1, 9]: 61%
- [Drug], mM (in purified vesicles) [1, 9]: 0.15 ± 0.02 mM
- EE (%) ([1]; chemotherapeutic drugs in SDBS-rich SVs, PBS 1×, listed as doxorubicin): 60% and 61%
- release from vesicles after 11 days ([3]; within detection limits, after 11 days): no release
- pKa [8]: 8.4
- IC50 (MDA-MB-231): 0.06 µg/mL (≈ 0.11 µM)
- IC50 (A549): 0.02 µg/mL (≈ 0.0368 µM)
- Vesicle PDI ([6]; drug-loaded catanionic SVs): 0.25
- Vesicle Radius (nm) ([6]; drug-loaded catanionic SVs): 91 nm

Molecule: Nc1nc2[nH]cc(CCc3ccc(C(=O)N[C@@H](CCC(=O)O)C(=O)O)cc3)c2c(=O)[nH]1 [Pemetrexed, pemetrexed]
- EE (%) [1, 9]: 0.80%
- [Drug], mM (in purified vesicles) [1, 9]: 0.45 ± 0.09 mM
- Half-life t1/2 [3]: 47 ± 4 h
- First Order Rate Constant k [3, 10]: 0.015 ± 0.001 h⁻¹
- Vesicle PDI ([6]; drug-loaded catanionic SVs): 0.17
- Vesicle Radius (nm) ([6]; drug-loaded catanionic SVs): 73 nm

Molecule: COC1OC(CO)C(O)C(O)C1O [α-D-methylglucoside]
- EE (%) [1, 13]: 0.17%
- [Sugar], mM (in purified vesicles) [1, 13]: 0.6 ± 0.2 mM
- First Order Rate Constant k [3, 14]: 3.7 ± 0.5 h⁻¹
- Vesicle PDI [6, 15]: 0.19
- Vesicle Radius (nm) [6, 15]: 75 nm

Molecule: maltotriose
- EE (%) [1, 13]: 0.65%
- [Sugar], mM (in purified vesicles) [1, 13]: 2.2 ± 0.2 mM
- Second Order Rate Constant k’ ([3]; 25° C., PBS 1×): 0.00211 ± 0.00022 M⁻¹ s⁻¹
- Vesicle PDI [6, 15]: 0.13
- Vesicle Radius (nm) [6, 15]: 95 nm
